For one assay, the target named is PKN1/PRK1 (Homo sapiens, UniProt Q16512). Description: Kinase panel 33P-ATP filter assay, PKN1/PRK1. It counts as biochemical. Particulars: HCl salt tested; ATP Conc. 15 μM (Km); read-out: Compound IC50 (nM) PKN1/PRK1. Here is the method: (§1) The HCl salts of S enantiomer and the R enantiomer of compound A were tested against a panel of kinases.
(§2) Compounds were received as powder and resuspended to 10 mM DMSO stock. Compounds were tested in 10-dose IC50 mode with a 3-fold serial dilution starting at 10 μM. Control compound, staurosporine, was tested in 10-dose IC50 mode with 4-fold serial dilution starting at 20 μM.
(§3) Reaction Conditions: Buffer Conditions: 20 mM HEPES ((4-(2-hydroxyethyl)-1-piperazineethanesulfonic acid; pH 7.5), 10 mM MgCl2, 1 mM EGTA (Ethyleneglycol-bis(p-aminoethyl)-N,N,N′,N′-tetraacetic Acid), 0.01% Brij35, 0.02 mg/ml BSA (Bovine serum albumin), 0.1 mM Na3VO4, 2 mM DTT (Dithiothreitol), 1% DMSO. Reaction Procedure: 1. Prepare indicated substrate in freshly prepared reaction buffer. 2. Deliver required cofactors to the substrate solution above. 3. Deliver indicated kinase into the substrate solution and mix gently. 4. Deliver compounds in DMSO into the kinase reaction mixture utilizing acoustic technology (Echo550). 5. Deliver ^33P-ATP (specific activity 0.01 μCi/μl final) into the reaction mixture to initiate the reaction. 6. Incubate kinase reaction for 120 minutes at room temperature. 7. […] Data Analysis: Kinase activity data were expressed as the percent remaining kinase activity in test samples compared to vehicle (dimethyl sulfoxide) reactions. […]

In another assay the target is PKCtheta (Homo sapiens, UniProt Q04759). Briefly: Kinase panel 33P-ATP filter assay, PKCtheta. It counts as biochemical. Particulars: HCl salt tested; ATP Conc. 30 μM (Km); read-out: Compound IC50 (nM) PKCtheta. Here is the method:
as §1, §2, §3

Another assay addresses T1, Haspin (Homo sapiens, UniProt Q8TF76).
T1 sequence (Q8TF76 1-798): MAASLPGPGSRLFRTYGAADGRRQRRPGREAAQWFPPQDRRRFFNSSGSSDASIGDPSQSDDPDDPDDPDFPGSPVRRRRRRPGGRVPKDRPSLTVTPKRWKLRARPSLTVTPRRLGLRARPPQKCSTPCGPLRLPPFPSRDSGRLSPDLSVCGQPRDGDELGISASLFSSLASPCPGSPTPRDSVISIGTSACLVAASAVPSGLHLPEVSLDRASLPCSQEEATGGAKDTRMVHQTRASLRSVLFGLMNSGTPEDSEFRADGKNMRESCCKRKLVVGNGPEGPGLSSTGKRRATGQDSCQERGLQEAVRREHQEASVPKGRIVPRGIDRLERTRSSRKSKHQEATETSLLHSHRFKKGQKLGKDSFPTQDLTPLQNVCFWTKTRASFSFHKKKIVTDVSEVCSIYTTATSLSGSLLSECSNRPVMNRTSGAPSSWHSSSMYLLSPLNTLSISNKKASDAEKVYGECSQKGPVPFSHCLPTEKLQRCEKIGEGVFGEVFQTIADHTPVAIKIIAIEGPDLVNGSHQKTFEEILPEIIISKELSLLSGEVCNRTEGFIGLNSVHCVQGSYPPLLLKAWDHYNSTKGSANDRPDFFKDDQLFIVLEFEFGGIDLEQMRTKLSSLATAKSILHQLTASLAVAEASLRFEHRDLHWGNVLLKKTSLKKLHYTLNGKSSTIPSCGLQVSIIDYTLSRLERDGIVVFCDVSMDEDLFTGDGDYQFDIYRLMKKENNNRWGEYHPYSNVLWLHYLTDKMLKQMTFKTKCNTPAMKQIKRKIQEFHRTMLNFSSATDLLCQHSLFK
Briefly: Kinase panel 33P-ATP filter assay, Haspin. It counts as biochemical. Particulars: HCl salt tested; ATP Conc. 20 μM (Km); read-out: Compound IC50 (nM) Haspin. As to the method:
as §1, §2, §3

In a further assay the target is PKCeta (Homo sapiens, UniProt P24723). Briefly: Kinase panel 33P-ATP filter assay, PKCeta. Particulars: HCl salt tested; ATP Conc. 15 μM (Km); read-out: Compound IC50 (nM) PKCeta. It counts as biochemical. Here is the method: as §1, §2, §3
PKCeta, sequence (P24723 whole entry): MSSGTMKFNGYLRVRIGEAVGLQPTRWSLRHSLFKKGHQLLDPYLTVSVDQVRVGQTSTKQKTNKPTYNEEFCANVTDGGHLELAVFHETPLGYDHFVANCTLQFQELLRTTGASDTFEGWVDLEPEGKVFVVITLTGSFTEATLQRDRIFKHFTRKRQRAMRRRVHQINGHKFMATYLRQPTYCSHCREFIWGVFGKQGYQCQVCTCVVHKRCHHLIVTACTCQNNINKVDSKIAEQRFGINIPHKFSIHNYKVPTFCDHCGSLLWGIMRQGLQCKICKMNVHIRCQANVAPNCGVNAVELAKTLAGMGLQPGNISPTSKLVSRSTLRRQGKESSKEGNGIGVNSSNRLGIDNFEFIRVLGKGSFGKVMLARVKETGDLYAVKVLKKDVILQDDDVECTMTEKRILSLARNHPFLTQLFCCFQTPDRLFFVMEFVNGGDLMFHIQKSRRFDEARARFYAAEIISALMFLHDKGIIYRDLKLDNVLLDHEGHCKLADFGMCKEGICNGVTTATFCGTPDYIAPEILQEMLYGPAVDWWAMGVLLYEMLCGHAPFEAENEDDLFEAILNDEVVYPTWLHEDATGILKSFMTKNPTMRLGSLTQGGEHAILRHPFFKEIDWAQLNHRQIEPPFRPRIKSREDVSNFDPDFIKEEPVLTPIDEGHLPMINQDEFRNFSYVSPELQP
A further assay addresses T2, CB2 (h) (Homo sapiens, UniProt P34972).
T2 construct: expressed in transfected cells; host or cells: CHO cells
Description: CEREP panel CB2 (h) antagonist effect, cAMP HTRF. It counts as cell-based. Particulars: HCl salt tested; CHO cells, WIN 55212-2 (3 nM). The text has this:
(§4) The use of in vitro pharmacological screening against a diverse range of targets (receptors, ion channels, enzymes and transporters) is used to identify undesirable off-target activity that may cause adverse drug reactions in humans. Screening panels (e.g. SafetyScreen44™ Panel, Eurofins) comprise a selection of off-targets linked with known issues in humans that could hinder or halt the development of drug candidates or market withdrawal if discovered after a drug is approved. The HCl salts of the S enantiomer and the R enantiomer of compound A were tested against a panel of such targets.
(§5) The tests were carried out according to the methods described in the following tables and indicated literature references.

The target in another assay is T3, MAO-A (Rattus norvegicus, UniProt P21396).
T3 sequence (P21396 1-526): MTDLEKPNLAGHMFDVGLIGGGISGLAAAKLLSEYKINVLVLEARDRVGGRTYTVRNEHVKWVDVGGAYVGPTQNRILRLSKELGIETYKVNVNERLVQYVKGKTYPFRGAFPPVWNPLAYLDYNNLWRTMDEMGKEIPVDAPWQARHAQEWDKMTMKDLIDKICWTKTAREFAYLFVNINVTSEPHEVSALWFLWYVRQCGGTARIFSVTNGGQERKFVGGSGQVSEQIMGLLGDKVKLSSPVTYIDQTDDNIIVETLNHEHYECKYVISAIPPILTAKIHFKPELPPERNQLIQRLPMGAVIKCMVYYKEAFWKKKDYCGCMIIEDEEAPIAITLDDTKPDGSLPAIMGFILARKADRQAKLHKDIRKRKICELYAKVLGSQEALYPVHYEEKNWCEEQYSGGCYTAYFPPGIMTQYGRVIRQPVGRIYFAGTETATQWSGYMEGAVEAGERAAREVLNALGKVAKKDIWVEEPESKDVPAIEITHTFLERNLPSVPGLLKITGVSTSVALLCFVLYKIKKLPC
Description: CEREP panel MAO-A (antagonist radioligand). Particulars: HCl salt tested. It counts as binding.
From the text: as §4, §5

Where only a bound is given, the exact number is not on record here.

T2 sequence (P34972 whole entry): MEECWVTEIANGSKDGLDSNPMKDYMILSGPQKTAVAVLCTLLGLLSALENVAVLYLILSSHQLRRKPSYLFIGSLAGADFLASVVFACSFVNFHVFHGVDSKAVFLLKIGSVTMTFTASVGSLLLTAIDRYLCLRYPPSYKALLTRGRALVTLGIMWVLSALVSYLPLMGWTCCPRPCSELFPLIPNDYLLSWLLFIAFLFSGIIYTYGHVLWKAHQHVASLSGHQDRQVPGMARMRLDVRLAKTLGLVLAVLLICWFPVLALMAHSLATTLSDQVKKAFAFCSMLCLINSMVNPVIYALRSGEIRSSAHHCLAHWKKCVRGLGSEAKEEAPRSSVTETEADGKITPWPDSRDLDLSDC
PKCtheta, sequence (Q04759 whole entry): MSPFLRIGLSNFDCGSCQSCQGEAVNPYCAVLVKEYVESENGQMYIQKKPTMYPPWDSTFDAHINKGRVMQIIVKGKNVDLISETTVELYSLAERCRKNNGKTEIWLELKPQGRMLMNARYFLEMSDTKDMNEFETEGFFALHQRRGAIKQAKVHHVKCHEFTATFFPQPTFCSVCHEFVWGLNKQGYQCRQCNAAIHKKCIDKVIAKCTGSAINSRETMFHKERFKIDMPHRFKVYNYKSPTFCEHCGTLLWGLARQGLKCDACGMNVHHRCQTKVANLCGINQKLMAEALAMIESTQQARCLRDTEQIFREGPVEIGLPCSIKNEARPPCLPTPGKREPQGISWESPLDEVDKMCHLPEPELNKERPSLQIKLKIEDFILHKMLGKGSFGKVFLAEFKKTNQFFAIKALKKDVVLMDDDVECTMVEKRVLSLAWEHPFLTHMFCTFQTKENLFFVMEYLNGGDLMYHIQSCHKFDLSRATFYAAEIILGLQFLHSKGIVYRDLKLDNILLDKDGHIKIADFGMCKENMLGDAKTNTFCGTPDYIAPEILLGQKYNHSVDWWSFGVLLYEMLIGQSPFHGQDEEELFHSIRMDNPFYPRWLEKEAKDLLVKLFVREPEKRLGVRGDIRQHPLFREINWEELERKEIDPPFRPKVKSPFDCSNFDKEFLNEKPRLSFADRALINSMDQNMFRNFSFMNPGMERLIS
PKN1/PRK1, sequence (Q16512 whole entry): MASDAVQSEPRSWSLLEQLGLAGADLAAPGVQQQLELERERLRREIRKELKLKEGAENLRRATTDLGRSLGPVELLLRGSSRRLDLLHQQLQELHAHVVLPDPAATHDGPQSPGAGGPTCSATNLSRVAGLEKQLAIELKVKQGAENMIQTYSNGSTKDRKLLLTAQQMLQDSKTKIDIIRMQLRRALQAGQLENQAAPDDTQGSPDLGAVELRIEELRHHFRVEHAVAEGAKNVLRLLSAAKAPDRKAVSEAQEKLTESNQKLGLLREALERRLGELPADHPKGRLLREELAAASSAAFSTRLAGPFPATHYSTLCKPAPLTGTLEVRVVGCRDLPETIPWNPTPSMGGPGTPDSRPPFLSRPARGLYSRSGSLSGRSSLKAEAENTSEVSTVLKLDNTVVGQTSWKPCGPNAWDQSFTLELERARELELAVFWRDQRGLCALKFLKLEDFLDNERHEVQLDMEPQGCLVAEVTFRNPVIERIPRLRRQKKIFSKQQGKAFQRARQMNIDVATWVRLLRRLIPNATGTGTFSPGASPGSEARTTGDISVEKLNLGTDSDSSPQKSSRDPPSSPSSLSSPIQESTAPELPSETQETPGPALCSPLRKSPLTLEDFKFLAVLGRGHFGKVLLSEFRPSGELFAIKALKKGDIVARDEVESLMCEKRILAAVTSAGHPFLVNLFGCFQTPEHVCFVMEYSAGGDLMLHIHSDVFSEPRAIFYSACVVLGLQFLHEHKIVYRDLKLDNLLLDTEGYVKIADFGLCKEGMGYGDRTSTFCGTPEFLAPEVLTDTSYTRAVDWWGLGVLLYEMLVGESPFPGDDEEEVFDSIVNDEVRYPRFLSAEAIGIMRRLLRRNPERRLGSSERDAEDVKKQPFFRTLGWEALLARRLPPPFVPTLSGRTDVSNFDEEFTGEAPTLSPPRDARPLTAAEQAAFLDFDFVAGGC

For `NCc1ccc(C(=O)Nc2ccncc2F)cc1-c1cccc(C(=O)Nc2ccc(SC[C@@H]3CCOC3=O)cc2)c1` [R-enantiomer], the IC50 at PKN1/PRK1 is 7.9 nM; at PKCtheta, 4.4 nM; at Haspin it was 134 nM; on PKCeta it was below 0.5 nM; on CB2 (h), 38000 nM; at MAO-A, 4300 nM.
As to `NCc1ccc(C(=O)Nc2ccncc2F)cc1-c1cccc(C(=O)Nc2ccc(SC[C@H]3CCOC3=O)cc2)c1` [S-enantiomer], the IC50 at PKN1/PRK1 came out at 8.5 nM; on PKCtheta, 9.9 nM; at Haspin it was 297 nM; on PKCeta, 0.9 nM; at MAO-A, 820 nM. Further, on CB2 (h), the “CB2 (h) (antagonist effect) (IC50)” value is on record as “Inactive”.

The record behind these values is patent US20260078108A1, “SOLID FORMS OF A ROCK INHIBITOR” (REDX PHARMA PLC, priority 2022, published 2026).
